Data reported in US20250332173A1, “COMPOUNDS AND METHODS FOR MODULATING NUCLEIC ACID SPLICING” (REMIX THERAPEUTICS INC., priority 2021, published 2025).
Structures can show the parent of a compound that is named as a salt. Where two headings read alike, the source gives them in different places.

Legend:
Assay type in all cases: cell-based, human
[1] = system: MYB mRNA; experiment: RT-qPCR splicing assay, MYB canonical junction (CJ) and alternative junction (AJ) mRNA; details: Homo sapiens; for AC50: increase in MYB alternative junction (AJ) mRNA, read-out: MYB AJ AC50
Method in brief: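 A673 or K562 cells were treated for 24 h at 37 °C with an 11-point 3-fold compound dilution series (top final concentration 10 uM, DMSO ≤0.25%). After lysis, one-step TaqMan RT-qPCR quantified junction transcripts, normalized to PPIA for A673 or to GAPDH/GUSB for K562.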

[2] = system: HTT; experiment: HiBiT protein abundance assay, HTT HiBiT K562 cell line; details: HiBiT K562 cell line, 24 hours, top dose 10 μM; read-out: Effect on protein abundance, HTT (IC50 category)
Method in brief: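 Endogenous targets in K562 knock-in lines carried a HiBiT tag and were treated for 24 h at 37 °C with 10-point 3-fold dilutions (top 10 μM final, DMSO ≤0.25%). Abundance was read as lytic Nano-Glo HiBiT luminescence. IC50 came from a four-parameter logistic fit of normalized response.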

[3] = system: Target C; experiment: HiBiT protein abundance assay, Target C (Promega Nano-Glo HiBiT Lytic Detection System, knock-in K562 cell line); details: Homo sapiens, K562, 24 h, HiBiT K562 cell line, 24 hours, top dose 10 μM; read-out: Effect on protein abundance, Target C (IC50 category)
Method in brief: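 HiBiT knock-in K562 cells (10,000/well) were treated for 24 h at 37 °C with a 10-point 3-fold dilution series, top final concentration 10 μM, DMSO ≤0.25%. Lytic HiBiT luminescence was read, normalized to unmodified K562 and DMSO-treated controls, and IC50 was interpolated from a four-parameter logistic fit.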

[4] = Table 5 panel, canonical junction qPCR, compound concentration having 50% response in CJ decrease, read-out: MYB IC50 (decrease in CJ mRNA levels)
[5] = decrease in MYB canonical junction (CJ) mRNA, RT-qPCR, read-out: MYB CJ IC50

Row | Compound | IC50 [1, 4] | IC50 [1, 5] | AC50 ([1]; RT-qPCR) | IC50 [2] | IC50 [3]
1 | CCOC(=O)c1cc(-c2ccc3c(=O)n(C4CCNCC4)ccc3c2)nn2cc(C)nc12 [Compound 529, ethyl 2-methyl-6-[1-oxo-2-(4-piperidyl)-6-isoquinolyl]imidazo[1,2-b]pyridazine-8-carboxylate] | 0.1 to 1 µM | 0.1 to 1 µM | 0.1 to 1 µM | 0.1 to 1 µM | 0.1 to 1 µM
2 | Cc1cn2nc(-c3cc(F)c4c(=O)n(C5CCNCC5)ncc4c3)cc(C)c2n1 [Compound 540] | < 0.1 µM | < 0.1 µM | < 0.1 µM | < 0.1 µM | < 0.1 µM
3 | Cc1cn2nc(-c3ccc4c(=O)n(C5CCNCC5)ccc4c3)cc(Cc3nnc[nH]3)c2n1 [Compound 535, 6-[2-methyl-8-(4H-1,2,4-triazol-3-ylmethyl)imidazo[1,2-b]pyridazin-6-yl]-2-(4-piperidyl) isoquinolin-1-one] | 1 to 10 µM | 1 to 10 µM | 1 to 10 µM | 1 to 10 µM | 1 to 10 µM
4 | Cc1cn2nc(-c3ccc4c(=O)n(C5CCN(C)CC5)cnc4c3)cc(C)c2n1 [Compound 176] | 0.1 to 1 µM | 1 to 10 µM | 0.1 to 1 µM | 1 to 10 µM | 1 to 10 µM
5 | Cn1ccc2c(cnn2-c2ccc3c(=O)n(C4CCNCC4)ccc3c2)c1=O [Compound 521] | 1 to 10 µM | 1 to 10 µM | 1 to 10 µM | 1 to 10 µM | 1 to 10 µM
6 | Cc1cn2nc(-c3cc(F)c4c(=O)n([C@@H]5CCN(C)C6(CC6)C5)ncc4c3)cc(C)c2n1 [Compound 637] | < 0.1 µM | < 0.1 µM | < 0.1 µM | < 0.1 µM | < 0.1 µM
7 | Cc1cc(-c2cc(F)c3c(=O)n(C4CCNC5(CC5)C4)ncc3c2)cc2cn(C)nc12 (centres unmarked) [Compound 554] | 0.1 to 1 µM | 0.1 to 1 µM | 0.1 to 1 µM | < 0.1 µM | 0.1 to 1 µM
8 | Cc1cn2nc(-c3ccc4c(=O)n(C5CCNCC5)ccc4c3)cc(OCc3ccccc3)c2n1 [Compound 526, 6-(8-benzyloxy-2-methyl-imidazo[1,2-b]pyridazin-6-yl)-2-(4-piperidyl) isoquinolin-1-one] | 0.1 to 1 µM | 0.1 to 1 µM | 0.1 to 1 µM | 0.1 to 1 µM | 0.1 to 1 µM
9 | Cc1cn2nc(-c3cc4ccn([C@@H]5CCNC5)c(=O)c4cc3O)cc(C)c2n1 [Compound 640, 6-(2,8-dimethylimidazo[1,2-b]pyridazin-6-yl)-7-hydroxy-2-[(3R)-pyrrolidin-3-yl]isoquinolin-1-one] | 0.1 to 1 µM | 0.1 to 1 µM | 0.1 to 1 µM | 1 to 10 µM | 1 to 10 µM
10 | Cn1ccc2nn(-c3ccc4c(=O)n(C5CCNCC5)ccc4c3)cc2c1=O [Compound 522, 6-{5-methyl-4-oxopyrazolo[4,3-c]pyridin-2-yl}-2-(piperidin-4-yl)isoquinolin-1-one] | > 10 µM | > 10 µM | > 10 µM | > 10 µM | > 10 µM
11 | Cc1cn2nc(-c3cc(F)c4c(=O)n(C5CCNCC5)ncc4c3)cc(Oc3ccccc3)c2n1 [Compound 548, 8-fluoro-6-(2-methyl-8-phenoxy-imidazo[1,2-b]pyridazin-6-yl)-2-(4-piperidyl)phthala-zin-1-one] | < 0.1 µM | < 0.1 µM | < 0.1 µM | < 0.1 µM | < 0.1 µM
12 | Cc1cn2nc(-c3cc(N)c4c(=O)n([C@H]5CCNC5)ccc4c3)cc(C)c2n1 [Compound 645, 8-amino-6-(2,8-dimethylimidazo[1,2-b]pyridazin-6-yl)-2-[(3S)-pyrrolidin-3-yl]isoquinolin-1-one] | 1 to 10 µM | 1 to 10 µM | 1 to 10 µM | 1 to 10 µM | > 10 µM
13 | Cc1cn2nc(-c3cc(O)c4c(=O)n(C5CCNCC5)ncc4c3)cc(C)c2n1 [Compound 541] | < 0.1 µM | < 0.1 µM | < 0.1 µM | < 0.1 µM | < 0.1 µM
14 | CCN1CCC(n2ncc3cc(-c4cc(C)c5nc(C)cn5n4)cc(O)c3c2=O)CC1 [Compound 542] | < 0.1 µM | < 0.1 µM | < 0.1 µM | < 0.1 µM | < 0.1 µM
15 | Cc1cc(-c2ccc3c(=O)n(C4CCNC5(CC5)C4)ncc3c2)cc2cn(C)nc12 (centres unmarked) [Compound 512] | 1 to 10 µM | 1 to 10 µM | 1 to 10 µM | 1 to 10 µM | < 0.1 µM
16 | Cc1cn2cc(-c3cc(F)c4c(=O)n([C@H]5CNC[C@H]5C)ccc4c3)cc(F)c2n1 [Compound 652, 8-fluoro-6-(8-fluoro-2-methyl-imidazo[1,2-a]pyridin-6-yl)-2-[(3R,4R)-4-methylpyrrolidin-3-yl]isoquinolin-1-one] | 1 to 10 µM | 1 to 10 µM | 1 to 10 µM | > 10 µM | > 10 µM
17 | Cc1cn2cc(-c3cc(F)c4c(=O)n(C5CCNC6(CC6)C5)ncc4c3)cc(Cl)c2n1 (centres unmarked) [Compound 556] | 0.1 to 1 µM | 0.1 to 1 µM | 0.1 to 1 µM | < 0.1 µM | 0.1 to 1 µM
18 | Cc1cn2cc(-c3cc(O)c4c(=O)n(C5CCNC6(CC6)C5)ncc4c3)cc(Cl)c2n1 (centres unmarked) [Compound 557] | 0.1 to 1 µM | 0.1 to 1 µM | 0.1 to 1 µM | < 0.1 µM | 0.1 to 1 µM
19 | Cc1cc(-c2ccc3c(=O)n(N4CCN(C)CC4)cnc3c2)cc2cn(C)nc12 [Compound 175] | 1 to 10 µM | 1 to 10 µM | 1 to 10 µM | 1 to 10 µM | > 10 µM
20 | Cc1cn2nc(-c3cc4ccn([C@H]5CCNC5)c(=O)c4cc3O)cc(C)c2n1 [Compound 641, 6-(2,8-dimethylimidazo[1,2-b]pyridazin-6-yl)-7-hydroxy-2-[(3S)-pyrrolidin-3-yl]isoquinolin-1-one] | < 0.1 µM | 0.1 to 1 µM | < 0.1 µM | 0.1 to 1 µM | 0.1 to 1 µM
21 | Cc1cn2nc(-c3ccc4c(=O)n(C5CCNCC5)ccc4c3)cc(Oc3ccccc3F)c2n1 [Compound 544, 6-[8-(2-fluorophenoxy)-2-methyl-imidazo[1,2-b]pyridazin-6-yl]-2-(4-piperidyl) isoquinolin-1-one; hydrochloride] | 0.1 to 1 µM | < 0.1 µM | 0.1 to 1 µM | < 0.1 µM | < 0.1 µM
22 | Cc1cn2nc(-c3ccc4c(=O)n(C5CCNCC5)ccc4c3)cc(Oc3ccccc3)c2n1 [Compound 519, 6-(2-methyl-8-phenoxy-imidazo[1,2-b]pyridazin-6-yl)-2-(4-piperidyl)isoquinolin-1-one] | < 0.1 µM | < 0.1 µM | < 0.1 µM | < 0.1 µM | < 0.1 µM
23 | CNc1cc(-c2cc(C)c3nc(C)cn3n2)cc2ccn([C@@H]3CCNC3)c(=O)c12 [Compound 648, 6-(2,8-dimethylimidazo[1,2-b]pyridazin-6-yl)-8-(methylamino)-2-[(3R)-pyrrolidin-3-yl]isoquinolin-1-one] | > 10 µM | > 10 µM | > 10 µM | > 10 µM | > 10 µM
24 | CNC(=O)Cc1cc(-c2ccc3c(=O)n(C4CCNCC4)ccc3c2)nn2cc(C)nc12 [Compound 534, N-methyl-2-[2-methyl-6-[1-oxo-2-(4-piperidyl)-6-isoquinolyl]imidazo[1,2-b]pyridazin-8-yl]acetamide] | 1 to 10 µM | 1 to 10 µM | 1 to 10 µM | 1 to 10 µM | 1 to 10 µM
25 | Cc1cn2nc(-c3ccc4c(=O)n(C5CCNCC5)ccc4c3)cc(Oc3cccnc3)c2n1 [Compound 550, 6-[2-methyl-8-(3-pyridyloxy)imidazo[1,2-b]pyridazin-6-yl]-2-(4-piperidyl)isoquinolin-1-one] | < 0.1 µM | < 0.1 µM | < 0.1 µM | < 0.1 µM | < 0.1 µM
